Experimental data from US20060115815A1 (priority 2002, published 2006).
“And” between values parts separate entries of the source, which are not always exact repeats. Equal values may be shown once.

Tested on: wild-type HIV-1 strain IIIB
Experiment: microbe, parasite or virus in culture
Format: cell-based
Conditions: Human immunodeficiency virus 1, IIIB, MT2

Q: `CCOP(=O)(COc1ccc(S(=O)(=O)N(CC(C)C)CC(O)C(Cc2ccc(N)cc2)NC(=O)OC2COC3OCCC23)cc1)OCC` (centres unmarked) [NH2, OEt] was tested. Which EC50 did it give?
A: 0.05 to 0.5 µM

Same assay, conditions: read-out: EC50

Q: For `CCOP(=O)(CCN1CCN(CC(NC(=O)OC2COC3OCCC23)C(O)CN(CC(C)C)S(=O)(=O)c2ccc(OC)cc2)CC1)OCC` (centres unmarked), which EC50 is on record?
A: 0.05 to 0.5 µM

Q: With `CCOC(=O)C(C)OP(=O)(CN1CC=C(CC(NC(=O)OC2COC3OCCC23)C(O)CN(CC(C)C)S(=O)(=O)c2ccc(OC)cc2)CC1)Oc1ccccc1` (centres unmarked) as the molecule, how does the EC50 read?
A: > 5 µM

Q: `CCOC(=O)C(C)OP(=O)(CCN1CC=C(CC(NC(=O)OC2COC3OCCC23)C(O)CN(CC(C)C)S(=O)(=O)c2ccc(OC)cc2)CC1)Oc1ccccc1` (centres unmarked) was tested. Which EC50 did it give?
A: > 5 µM

Q: With `COc1ccc(S(=O)(=O)N(CC(C)C)CC(O)C(CC2=CCN(CCP(=O)(O)OC(C)C(=O)O)CC2)NC(=O)OC2COC3OCCC23)cc1` (centres unmarked) as the molecule, how does the EC50 read?
A: > 5 µM

Q: `CCOC(=O)C(C)OP(=O)(Cc1ccc(NCC(NC(=O)OC2COC3OCCC23)C(O)CN(CC(C)C)S(=O)(=O)c2ccc(OC)cc2)cc1)Oc1ccccc1` (centres unmarked) was tested. Which EC50 did it give?
A: < 0.05 µM

Q: How did the EC50 turn out when `CCOC(=O)C(C)OP(=O)(Cc1ccc(N(C)CC(NC(=O)OC2COC3OCCC23)C(O)CN(CC(C)C)S(=O)(=O)c2ccc(OC)cc2)cc1)Oc1ccccc1` (centres unmarked) was run?
A: < 0.05 µM

Q: Which EC50 does the source give for `CCOP(=O)(OCC)c1ccc(CNCC(NC(=O)OC2COC3OCCC23)C(O)CN(CC(C)C)S(=O)(=O)c2ccc(OC)cc2)cc1` (centres unmarked) here?
A: < 0.05 µM

Q: `COc1ccc(S(=O)(=O)N(CCN(C)C)CC(O)C(Cc2ccc(O)cc2)NC(=O)OC2COC3OCCC23)cc1` (centres unmarked) was tested. Which EC50 did it give?
A: 0.05 to 0.5 µM

Q: How did the EC50 turn out when `CCOP(=O)(COc1ccc(C[C@H](NC(=O)O[C@H]2CO[C@H]3OCC[C@H]32)[C@H](O)CN(CC(C)C)S(=O)(=O)c2ccc([N+](=O)[O-])cc2)cc1)OCC` was run?
A: < 0.05 µM

Q: With `CCOC(=O)C(C)OP(=O)(COc1ccc(C[C@H](NC(=O)O[C@H]2CO[C@H]3OCC[C@H]32)[C@H](O)CN(CC(C)C)S(=O)(=O)c2ccc(O)cc2)cc1)Oc1ccccc1` (some centres unmarked) as the molecule, how does the EC50 read?
A: < 0.05 µM

Q: With `CCOC(=O)C(C)OP(=O)(COc1ccc(C[C@H](NC(=O)O[C@H]2CO[C@H]3OCC[C@H]32)[C@H](O)CN(CC(C)C)S(=O)(=O)c2ccc(OCc3ccccc3)cc2)cc1)Oc1ccccc1` (some centres unmarked) as the molecule, how does the EC50 read?
A: 0.05 to 0.5 µM

Q: For `CC(C)CN(C[C@@H](O)[C@H](Cc1ccc(OCP(=O)(OCc2ccccc2)OC(C)C(=O)OCc2ccccc2)cc1)NC(=O)O[C@H]1CO[C@H]2OCC[C@H]21)S(=O)(=O)c1ccc(OCc2ccccc2)cc1` (some centres unmarked), which EC50 is on record?
A: > 5 µM

Q: `CC(C)CN(C[C@@H](O)[C@H](Cc1ccc(OCP(=O)(OCc2ccccc2)OC(C)C(=O)OCc2ccccc2)cc1)NC(=O)O[C@H]1CO[C@H]2OCC[C@H]21)S(=O)(=O)c1ccccc1` (some centres unmarked) was tested. Which EC50 did it give?
A: 0.05 to 0.5 µM

Q: `CC(C)CN(C[C@@H](O)[C@H](Cc1ccc(OCP(=O)(OCc2ccccc2)OCc2ccccc2)cc1)NC(=O)O[C@H]1CO[C@H]2OCC[C@H]21)S(=O)(=O)c1ccc(C(F)(F)F)cc1` was tested. Which EC50 did it give?
A: < 0.05 µM

Q: With `CC(C)CN(CC(O)C(Cc1ccc(OCP(=O)(OCc2ccccc2)OC(C)C(=O)OCc2ccccc2)cc1)NC(=O)OC1COC2OCCC12)S(=O)(=O)c1ccc[n+]([O-])c1` (centres unmarked) as the molecule, how does the EC50 read?
A: > 5 µM

Q: For `CCOC(=O)C(C)OP(=O)(COc1ccc(CC(NC(=O)OC2COC3OCCC23)C(O)CN(CC(C)C)S(=O)(=O)c2ccc(C=O)cc2)cc1)Oc1ccccc1` (centres unmarked), which EC50 is on record?
A: < 0.05 µM

Q: With `CC(C)CN(CC(O)C(Cc1ccc(OCP(=O)(OCc2ccccc2)OCc2ccccc2)cc1)NC(=O)OC1COC2OCCC12)S(=O)(=O)c1ccc(C=O)cc1` (centres unmarked) as the molecule, how does the EC50 read?
A: < 0.05 µM

Q: For `CCOC(=O)C(C)OP(=O)(COc1ccc(CC(NC(=O)OC2COC3OCCC23)C(O)CN(CC(C)C)S(=O)(=O)c2ccc(CO)cc2)cc1)Oc1ccccc1` (centres unmarked), which EC50 is on record?
A: < 0.05 µM

Q: Which EC50 does the source give for `CCOC(=O)C(C)OP(=O)(COc1ccc(CC(NC(=O)OC2COC3OCCC23)C(O)CN(CC(C)C)S(=O)(=O)c2ccc(CN3CCOCC3)cc2)cc1)Oc1ccccc1` (centres unmarked) here?
A: 0.05 to 0.5 µM

Q: For `COc1ccc(S(=O)(=O)N(CC(C)C)C[C@@H](OP(=O)(O)O)[C@H](Cc2ccc(OCP(=O)(Oc3ccccc3)O[C@@H](C)C(=O)OC(C)C)cc2)NC(=O)O[C@H]2CO[C@H]3OCC[C@H]32)cc1` (some centres unmarked), which EC50 is on record?
A: < 0.05 µM

Q: `CCOC(=O)[C@H](C)OP(=O)(COc1ccc(C[C@H](NC(=O)O[C@H]2CO[C@H]3OCC[C@H]32)[C@@H](CN(CC(C)C)S(=O)(=O)c2ccc(OC)cc2)OC(=O)[C@H](N)C(C)C)cc1)Oc1ccccc1` (some centres unmarked) was tested. Which EC50 did it give?
A: 0.05 to 0.5 µM

Q: With `CCOC(=O)[C@H](C)OP(=O)(COc1ccc(C[C@H](NC(=O)O[C@H]2CO[C@H]3OCC[C@H]32)[C@H](O)CN(CC(C)C)S(=O)(=O)c2ccc(COC(=O)[C@H](N)C(C)C)cc2)cc1)Oc1ccccc1` (some centres unmarked) as the molecule, how does the EC50 read?
A: 0.05 to 0.5 µM

Q: For `CCOC(=O)C(CC)OP(=O)(COc1ccc(CC(NC(=O)OC2COC3OCCC23)C(O)CN(CC(C)C)S(=O)(=O)c2ccc(OC)cc2)cc1)Oc1ccccc1` (mixture of isomers) [drawing 659 R1=OPh R2=mix-Hba-Et], which EC50 is on record?
A: < 0.05 µM

Q: For `CCCCOC(=O)C(CC)NP(=O)(COc1ccc(CC(NC(=O)OC2COC3OCCC23)C(O)CN(CC(C)C)S(=O)(=O)c2ccc(OC)cc2)cc1)Oc1ccccc1` (single isomer, unassigned) [drawing 657 R1=OPh R2=Aba-Bu], which EC50 is on record?
A: < 0.05 µM and 0.05 to 0.5 µM

Q: How did the EC50 turn out when `CCOC(=O)C(CC)NP(=O)(COc1ccc(C[C@H](NC(=O)O[C@H]2CO[C@H]3OCC[C@H]32)[C@H](O)CN(CC(C)C)S(=O)(=O)c2ccc(OC)cc2)cc1)Oc1ccccc1` (single isomer, unassigned) [drawing 657 R1=OPh R2=Aba-Et] was run?
A: < 0.05 µM and 0.05 to 0.5 µM

Q: How did the EC50 turn out when `COc1ccc(S(=O)(=O)N(CC(C)C)C[C@@H](O)[C@H](Cc2ccc(OCP(=O)(Oc3ccccc3)OC(C)C(=O)OC(C)C)cc2)NC(=O)O[C@H]2CO[C@H]3OCC[C@H]32)cc1` (single isomer, unassigned) [drawing 658 R1=OPh R2=Lac-iPr] was run?
A: < 0.05 µM

Q: How did the EC50 turn out when `CCOC(=O)C(C)OP(=O)(CCNc1ccc(CC(NC(=O)OC2COC3OCCC23)C(O)CN(CC(C)C)S(=O)(=O)c2ccc(OC)cc2)cc1)Oc1ccccc1` (single isomer, unassigned) [drawing 706] was run?
A: < 0.05 µM

Q: How did the EC50 turn out when `CCOC(=O)C(C)OP(=O)(CCNc1ccc(CC(NC(=O)OC2COC3OCCC23)C(O)CN(CC(C)C)S(=O)(=O)c2ccc(OC)cc2)cc1)Oc1ccccc1` (single isomer, unassigned) [drawing 707] was run?
A: < 0.05 µM

Q: With `COc1ccc(S(=O)(=O)N(CC(C)C)CC(O)C(Cc2ccc(OCP(=O)(O)OCc3ccccc3)cc2)NC(=O)OC2COC3OCCC23)cc1` (centres unmarked) [drawing 651 R1=OH R2=OBn] as the molecule, how does the EC50 read?
A: 0.5 to 5 µM

Q: `CCOP(=O)(O)COc1ccc(CC(NC(=O)OC2COC3OCCC23)C(O)CN(CC(C)C)S(=O)(=O)c2ccc(OC)cc2)cc1` (centres unmarked) [drawing 651 R1=OH R2=OEt] was tested. Which EC50 did it give?
A: 0.05 to 0.5 µM

Q: With `COc1ccc(S(=O)(=O)N(CC(C)C)C[C@@H](O)[C@H](Cc2ccc(OCP(=O)(Oc3ccccc3)Oc3ccccc3)cc2)NC(=O)O[C@H]2CO[C@H]3OCC[C@H]32)cc1` [drawing 651 R1=OPh R2=OPh] as the molecule, how does the EC50 read?
A: < 0.05 µM

Q: With `COc1ccc(S(=O)(=O)N(CC(C)C)C[C@@H](O)[C@H](Cc2ccc(OCP(=O)(OCOC(=O)OC(C)C)OCOC(=O)OC(C)C)cc2)NC(=O)O[C@H]2CO[C@H]3OCC[C@H]32)cc1` [drawing 651 R1=OPoc R2=OPoc] as the molecule, how does the EC50 read?
A: 0.5 to 5 µM

Q: How did the EC50 turn out when `CCOP(=O)(COc1ccc(C[C@H](NC(=O)O[C@H]2CO[C@H]3OCC[C@H]32)[C@H](O)CN(CC(C)C)S(=O)(=O)c2ccc(O)cc2)cc1)OCC` [drawing 652 R1=Et R2=Et] was run?
A: < 0.05 µM

Q: With `CC(C)CN(C[C@@H](O)[C@H](Cc1ccc(OCP(=O)(O)O)cc1)NC(=O)O[C@H]1CO[C@H]2OCC[C@H]21)S(=O)(=O)c1ccc(O)cc1` [drawing 652 R1=OH R2=OH] as the molecule, how does the EC50 read?
A: 0.5 to 5 µM
